Reference: ChEMBL document CHEMBL1201862, “PubChem BioAssay data set” (2004)
Several values for one entry are separate records, joined by “and”; a condition that tells them apart may be missing. Identical values can stand only once.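 A five-concentration, 48-hour dose response in 96-well plates underlies each endpoint, interpolated linearly between surrounding concentrations. GI50 marks 50% less growth.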 Activity calls are given as the source filed them. Cut-off read from the data, not from the text of the source: active = GI50 up to about 1.1 µM and inactive = higher.

Tests used:
Experiment in all cases: NCI anticancer screen, dose series, 48 h
ACHN = tested on: ACHN
COLO 205 = tested on: COLO 205
HT-29 = tested on: HT-29
K562 = tested on: K562
LXFL 529 = tested on: LXFL 529
MOLT-4 = tested on: MOLT-4
Malme-3M = tested on: Malme-3M
NCI-H226 = tested on: NCI-H226
NCI-H23 = tested on: NCI-H23
OVCAR-3 = tested on: OVCAR-3
SF-295 = tested on: SF-295
SK-MEL-28 = tested on: SK-MEL-28
SK-MEL-2 = tested on: SK-MEL-2
SNB-19 = tested on: SNB-19
SW-620 = tested on: SW-620
UO-31 = tested on: UO-31
HCC 2998 = tested on: HCC 2998
BT-549 = tested on: BT-549
MDA-MB-435 = tested on: MDA-MB-435
PC-3 = tested on: PC-3

Measured: GI50

COc1cccc2c1C1=CC(=O)CCC1C(C)(C)O2 (stereo not drawn)
inactive: ACHN > 100 µM | COLO 205 67.6 µM | HT-29 > 100 µM | K562 > 100 µM | LXFL 529 > 100 µM | MOLT-4 > 100 µM | Malme-3M > 100 µM | NCI-H226 > 100 µM | NCI-H23 > 100 µM | OVCAR-3 > 100 µM | SF-295 > 100 µM | SK-MEL-28 > 100 µM | SK-MEL-2 > 100 µM | SNB-19 > 100 µM | SW-620 13.4 µM | UO-31 > 100 µM

Cc1cc(C)c(C(=O)C(C)C(c2ccccc2)c2ccc(Cl)cc2)c(C)c1 (stereo not drawn)
inactive: ACHN > 100 µM and 91.8 µM | COLO 205 > 100 µM | HT-29 34.4 µM and 43.5 µM | K562 50.5 µM and 48.8 µM | LXFL 529 63.5 µM | MOLT-4 65.9 µM and 50.7 µM | NCI-H226 > 100 µM | NCI-H23 > 100 µM and 60.7 µM | OVCAR-3 > 100 µM | SF-295 > 100 µM | SK-MEL-28 > 100 µM | SW-620 > 100 µM | UO-31 50.8 µM

CCN(CC)CCC(=O)N1CCc2c([nH]c3ccccc23)C1c1cccnc1 (stereo not drawn)
inactive: ACHN > 100 µM | HCC 2998 > 100 µM | HT-29 > 100 µM | K562 > 100 µM | LXFL 529 > 100 µM | MOLT-4 > 100 µM | NCI-H23 > 100 µM | OVCAR-3 > 100 µM | SF-295 > 100 µM | SK-MEL-28 > 100 µM | SNB-19 > 100 µM | SW-620 > 100 µM | UO-31 > 100 µM

CC(C)C(=O)/C=C/c1ccc(Cl)c(Cl)c1
inactive: ACHN 18.5 µM | COLO 205 24.9 µM | HCC 2998 18.8 µM | HT-29 19.7 µM | K562 6.18 µM | LXFL 529 18.7 µM | MOLT-4 24.4 µM | NCI-H23 18.3 µM | OVCAR-3 14.5 µM | SF-295 13.4 µM | SK-MEL-28 18.7 µM | SK-MEL-2 17.5 µM | SNB-19 15.1 µM | SW-620 15.6 µM | UO-31 14.2 µM

CN(CCN1C(=O)c2cc([N+](=O)[O-])cc3cc([N+](=O)[O-])cc(c23)C1=O)CCN1C(=O)c2cc([N+](=O)[O-])cc3cc([N+](=O)[O-])cc(c23)C1=O
inactive: NCI-H23 1.74 µM | UO-31 4.8 µM
active: ACHN 0.264 µM | COLO 205 0.393 µM | HCC 2998 0.491 µM | HT-29 0.272 µM | K562 0.23 µM | LXFL 529 0.211 µM | MOLT-4 0.0485 µM | Malme-3M 0.815 µM | NCI-H226 0.778 µM | OVCAR-3 0.646 µM | SF-295 0.59 µM | SK-MEL-28 0.798 µM | SK-MEL-2 0.764 µM | SW-620 0.0741 µM

CCCN(CCC)c1c([N+](=O)[O-])cc(C(=O)N(CCO)CCO)cc1[N+](=O)[O-]
inactive: ACHN > 100 µM | COLO 205 > 100 µM | HCC 2998 > 100 µM | HT-29 > 100 µM | K562 61.4 µM | LXFL 529 > 100 µM | MOLT-4 > 100 µM | Malme-3M > 100 µM | NCI-H226 > 100 µM | NCI-H23 > 100 µM | OVCAR-3 > 100 µM | SF-295 > 100 µM | SK-MEL-28 > 100 µM | SK-MEL-2 > 100 µM | UO-31 > 100 µM

CC(C)N1CC2CC(CN(C(=O)c3ccc(Cl)cc3)C2)C1
inactive: ACHN > 100 µM | COLO 205 > 100 µM | HT-29 > 100 µM | K562 > 100 µM | LXFL 529 > 100 µM | MOLT-4 > 100 µM | Malme-3M > 100 µM | NCI-H226 > 100 µM | NCI-H23 > 100 µM | OVCAR-3 > 100 µM | SF-295 > 100 µM | SK-MEL-28 > 100 µM | SK-MEL-2 > 100 µM | SNB-19 > 100 µM | SW-620 > 100 µM | UO-31 > 100 µM

COC(=O)C1(C(=O)OC)CC2=C(S(=O)(=O)c3ccccc3)C[C@H](S(=O)(=O)c3ccccc3)[C@H]2C1
inactive: ACHN > 100 µM | BT-549 > 100 µM | COLO 205 62.4 µM | HCC 2998 15.7 µM | HT-29 > 100 µM | K562 23.7 µM | MDA-MB-435 76.4 µM | MOLT-4 46.7 µM | Malme-3M 80.2 µM | NCI-H226 > 100 µM | NCI-H23 > 100 µM | OVCAR-3 29 µM | PC-3 41.9 µM | SF-295 > 100 µM | SK-MEL-28 > 100 µM | SK-MEL-2 27.2 µM | SNB-19 71.6 µM | SW-620 > 100 µM | UO-31 > 100 µM

COc1ccc(C/C(=N/O)C(=O)NCCc2cc(Br)c(OCCCN(C)C)c(Br)c2)cc1Br [APLYSAMINE 2]
inactive: ACHN 15.6 µM | COLO 205 18.8 µM | HCC 2998 14.1 µM | HT-29 5.92 µM | LXFL 529 16.1 µM | Malme-3M 27.6 µM | NCI-H23 > 10 µM | OVCAR-3 21.6 µM | SF-295 18.8 µM | SK-MEL-28 17.7 µM | SK-MEL-2 20.1 µM | SNB-19 16.3 µM | SW-620 16.6 µM | UO-31 23.1 µM

Cc1cc(N(C)C)c2ccccc2[n+]1CCCCCCCCCC[n+]1c(C)cc(N(C)C)c2ccccc21.[O-][Cl+3]([O-])([O-])[O-].[O-][Cl+3]([O-])([O-])[O-]
inactive: ACHN 1.48 µM | Malme-3M 11 µM | NCI-H226 3.33 µM | SF-295 1.47 µM | SW-620 1.92 µM | UO-31 3.38 µM
active: BT-549 0.676 µM | COLO 205 0.265 µM | HCC 2998 0.893 µM | HT-29 0.429 µM | K562 0.128 µM | MDA-MB-435 0.516 µM | MOLT-4 0.687 µM | NCI-H23 0.202 µM | OVCAR-3 0.486 µM | PC-3 0.589 µM | SK-MEL-28 0.986 µM | SK-MEL-2 0.962 µM | SNB-19 0.512 µM

COc1cc(C)cc2c1C(=O)C(Br)=CC2=O
inactive: ACHN 2.52 µM | BT-549 11.1 µM | COLO 205 1.72 µM | HCC 2998 19.5 µM | HT-29 8.22 µM | K562 1.93 µM | MDA-MB-435 2.29 µM | MOLT-4 2.39 µM | Malme-3M 2.1 µM | NCI-H226 17.4 µM | NCI-H23 15.5 µM | OVCAR-3 4.82 µM | PC-3 17 µM | SF-295 16.2 µM | SK-MEL-28 17.4 µM | SK-MEL-2 14.4 µM | SNB-19 16.3 µM | SW-620 1.89 µM | UO-31 5.38 µM

NNC(=O)CC(=O)Nc1ccccc1F
inactive: ACHN > 100 µM | COLO 205 > 100 µM | HCC 2998 > 100 µM | HT-29 > 100 µM | K562 > 100 µM | LXFL 529 > 100 µM | MOLT-4 > 100 µM | Malme-3M > 100 µM | NCI-H226 > 100 µM | NCI-H23 > 100 µM | OVCAR-3 > 100 µM | SF-295 > 100 µM | SK-MEL-28 > 100 µM | SNB-19 > 100 µM | SW-620 > 100 µM | UO-31 > 100 µM

CCOC(=O)c1ccc(/N=C/c2ccc(N(CCC#N)S(=O)(=O)c3ccccc3)cc2C)cc1
inactive: COLO 205 20.4 µM | HCC 2998 28.7 µM | HT-29 37.2 µM | K562 9.79 µM | LXFL 529 6.01 µM | MOLT-4 28.6 µM | Malme-3M 53.8 µM | NCI-H23 > 100 µM | OVCAR-3 54.7 µM | SF-295 26.5 µM | SK-MEL-28 61.2 µM | SK-MEL-2 33.5 µM | SNB-19 > 100 µM | SW-620 76.6 µM | UO-31 28.3 µM

Brc1cccc(C2ON=C(c3ccccc3)N2C23CC4CC(CC(C4)C2)C3)c1 (stereo not drawn)
inactive: ACHN > 10 µM | BT-549 > 10 µM | COLO 205 > 10 µM | HCC 2998 > 10 µM | HT-29 > 10 µM | K562 > 10 µM | MDA-MB-435 > 10 µM | MOLT-4 > 10 µM | Malme-3M > 10 µM | NCI-H226 > 10 µM | NCI-H23 > 10 µM | OVCAR-3 > 10 µM | PC-3 > 10 µM | SF-295 > 10 µM | SK-MEL-28 > 10 µM | SK-MEL-2 > 10 µM | SNB-19 > 10 µM | SW-620 > 10 µM | UO-31 > 10 µM

O=C=NCCCCCCN1C(=O)N2C(c3ccccc3)N(CCCCCCN=C=O)C(=O)N2C1c1ccccc1 (stereo not drawn)
inactive: ACHN > 100 µM | BT-549 > 100 µM | COLO 205 > 100 µM | HCC 2998 > 100 µM | HT-29 > 100 µM | K562 > 100 µM | MDA-MB-435 > 100 µM | MOLT-4 62.1 µM | Malme-3M > 100 µM | NCI-H226 > 100 µM | NCI-H23 > 100 µM | OVCAR-3 > 100 µM | PC-3 > 100 µM | SF-295 > 100 µM | SK-MEL-28 > 100 µM | SK-MEL-2 > 100 µM | SNB-19 > 100 µM | SW-620 > 100 µM | UO-31 > 100 µM

c1ccc2c(c1)Nc1c3ccccc3nc3cccc-2c13
active: ACHN 0.818 µM | COLO 205 0.857 µM | HCC 2998 1.02 µM | HT-29 0.546 µM | K562 0.386 µM | MOLT-4 0.157 µM | PC-3 0.968 µM | SW-620 0.283 µM
inactive: BT-549 7.43 µM | MDA-MB-435 1.61 µM | Malme-3M 1.66 µM | NCI-H226 2.01 µM | NCI-H23 1.35 µM | OVCAR-3 1.46 µM | SF-295 1.17 µM | SK-MEL-28 1.71 µM | SK-MEL-2 1.6 µM | SNB-19 1.82 µM | UO-31 1.36 µM
